The target in the test is notum carboxyesterase enzyme (Homo sapiens (Human), UniProt Q6P988). Nature of the test: Biochemical Notum Enzymatic Activity Assay (OPTS substrate, fluorescence). The conditions noted are these: 2 μM OPTS solution, 2.38 nM notum enzyme solution, 1 hour incubation at room temperature, fluorescence ex 485 nm / em 520 nm; n≥2. An excerpt: Plate layout and measured fluorescence values were input into Dotmatics Studies data management tool.

The structures appear in SMILES notation. Where a name gives a salt, the structure may show the parent alone.

notum carboxyesterase enzyme, sequence (Q6P988 20-496): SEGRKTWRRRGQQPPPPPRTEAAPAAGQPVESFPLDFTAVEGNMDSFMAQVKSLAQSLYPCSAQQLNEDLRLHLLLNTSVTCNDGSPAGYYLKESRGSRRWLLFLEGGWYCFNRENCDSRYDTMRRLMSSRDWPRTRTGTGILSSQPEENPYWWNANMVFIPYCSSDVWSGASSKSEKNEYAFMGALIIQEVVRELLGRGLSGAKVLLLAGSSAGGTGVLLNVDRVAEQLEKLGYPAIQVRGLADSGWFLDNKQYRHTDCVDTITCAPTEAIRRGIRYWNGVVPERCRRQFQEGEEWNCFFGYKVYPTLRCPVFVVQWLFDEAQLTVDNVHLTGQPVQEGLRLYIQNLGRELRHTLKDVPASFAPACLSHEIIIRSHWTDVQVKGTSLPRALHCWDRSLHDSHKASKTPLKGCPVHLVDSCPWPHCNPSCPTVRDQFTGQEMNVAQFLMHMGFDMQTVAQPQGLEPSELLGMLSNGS

As usually defined, the IC50 is the concentration at which inhibition is half-maximal. Low readings indicate greater potency in that assay, high ones weaker potency in that assay. Regarding `OCCc1cn(-c2ccc(Cl)c(C(F)(F)F)c2)nn1` [Compound 303, 2-[1-[4-chloro-3-(trifluoromethyl)phenyl]triazol-4-yl]ethanol], the IC50 came to 0.149 µM. `Cc1ccc(-c2nnc(O)o2)cc1OC(F)(F)F` [Compound 79, 5-(4-methyl-3-(trifluoromethoxy)phenyl)-1,3,4-oxadiazol-2-ol] had a half-maximal inhibitory concentration (IC50) of 0.036 µM. `OCc1cn(-c2ccc(Cl)c(C(F)(F)F)c2)nn1` [Compound 9, (1-(4-chloro-3-(trifluoromethyl)phenyl)-1H-1,2,3-triazol-4-yl)methanol] came in with an IC50 of 0.0935 µM.

On to `Cc1nnnn1-c1ccc(Cl)c(C(F)(F)F)c1` [Compound 182, 1-[4-chloro-3-(trifluoromethyl)phenyl]-5-methyl-tetrazole], for which inhibition was half-maximal at 1.17 µM (IC50). With `COc1nnc(-c2ccc(Cl)c(C(F)(F)F)c2Cl)o1` [Compound 243, 2-(2,4-dichloro-3-(trifluoromethyl)phenyl)-5-methoxy-1,3,4-oxadiazole] the figure was 0.0058 µM; with `N#Cc1nnc(-c2ccccc2)o1` [Compound 132, 5-phenyl-1,3,4-oxadiazole-2-carbonitrile], 18.8 µM. With `OCc1cn(-c2ccc(C(F)(F)F)c(Cl)c2)nn1` [Compound 13, (1-(3-chloro-4-(trifluoromethyl)phenyl)-1H-1,2,3-triazol-4-yl)methanol] the figure was 1.72 µM. With `OCc1cn(-c2ccc3nccnc3c2)nn1` [Compound 12, (1-(quinoxalin-6-yl)-1H-1,2,3-triazol-4-yl)methanol] the figure was 52.5 µM; with `N#CNc1nnc(-c2ccc(Cl)c(C(F)(F)F)c2Cl)o1` [Compound 246, N-(5-(2,4-dichloro-3-(trifluoromethyl)phenyl)-1,3,4-oxadiazol-2-yl)cyanamide, ammonia salt], 0.0073 µM; with `OCc1cn(Cc2ccc(Cl)cc2)nn1` [Compound 162, (1-(4-chlorobenzyl)-1H-1,2,3-triazol-4-yl)methanol], 68.5 µM.

Take `CCOc1nnc(-c2ccc(Cl)c(C(F)(F)F)c2Cl)o1` [Compound 242, 2-(2,4-dichloro-3-(trifluoromethyl)phenyl)-5-ethoxy-1,3,4-oxadiazole]: inhibition was half-maximal at 0.0043 µM (IC50). Turning to `OCc1cn(-c2cccc(Cl)c2)nn1` [Compound 21, (1-(3-chlorophenyl)-1H-1,2,3-triazol-4-yl)methanol], the IC50 was 9.49 µM. With `FC(F)(F)c1cc(-c2cc[nH]n2)ccc1Cl` [Compound 51, 3-(4-chloro-3-(trifluoromethyl)phenyl)-1H-pyrazole] the figure was 1.36 µM; with `Nc1nnc(-c2ccc(Cl)cc2)s1` [Compound 168, 5-(4-chlorophenyl)-1,3,4-thiadiazol-2-amine], 8.29 µM. In turn, `OCc1cn(-c2cccc(Cl)c2Cl)nn1` [Compound 7, (1-(2,3-dichlorophenyl)-1H-1,2,3-triazol-4-yl)methanol] displayed an IC50 of 6.77 µM. Turning to `NCc1cc(-c2ccccc2)no1` [Compound 143, (3-phenylisoxazol-5-yl)methanamine], the IC50 stood at 11.6 µM. As to `Nc1nnc(-c2ccc(Cl)c(C(F)(F)F)c2Cl)o1` [Compound 248, 5-[2,4-dichloro-3-(trifluoromethyl)phenyl]-1,3,4-oxadiazol-2-amine], the IC50 turned out to be 0.0119 µM. As for `OCc1cn(-c2cccc3ccccc23)nn1` [Compound 25, (1-(naphthalen-1-yl)-1H-1,2,3-triazol-4-yl)methanol], the figure is 36.8 µM. With `OCCCc1cn(-c2ccc(Cl)c(C(F)(F)F)c2)nn1` [Compound 302, 3-[1-[4-chloro-3-(trifluoromethyl)phenyl]triazol-4-yl]propan-1-ol] the figure was 7.51 µM. On to `FC(F)(F)c1ccc(-c2nnc(S)o2)cc1C1CC1` [Compound 187, 5-[3-cyclopropyl-4-(trifluoromethyl)phenyl]-1,3,4-oxadiazole-2-thiol], for which inhibition was half-maximal at 0.426 µM (IC50). The compound `NCc1nc(-c2ccc(Cl)cc2)no1` [Compound 152, [3-(4-chlorophenyl)-1,2,4-oxadiazol-5-yl]methanamine] returned an IC50 of 43.1 µM. In turn, `Nc1nnc(-c2ccc(Cl)cc2)o1` [Compound 156, 2-amino-5-(4-chlorophenyl)-1,3,4-oxadiazole] gave an IC50 of 11.9 µM. As for `OCc1cn(-c2ccccc2Cl)nn1` [Compound 20, (1-(2-chlorophenyl)-1H-1,2,3-triazol-4-yl)methanol], the figure is 39.1 µM; as for `OCc1cn(-c2ccc(Cl)cc2Cl)nn1` [Compound 8, (1-(2,4-dichlorophenyl)-1H-1,2,3-triazol-4-yl)methanol], 7.2 µM. With `NCc1cc(-c2ccc(Cl)cc2)no1` [Compound 167, (3-(4-chlorophenyl)isoxazol-5-yl)methanamine] the figure was 70.2 µM; with `OCc1ncn(-c2ccc(Cl)c(Cl)c2)n1` [Compound 47, (1-(3,4-dichlorophenyl)-1H-1,2,4-triazol-3-yl)methanol], 49.5 µM; with `COc1ccc(-c2cc[nH]n2)c(O)c1` [Compound 57, 5-methoxy-2-(1H-pyrazol-3-yl)phenol], 34.2 µM. In turn, `OCc1cn(-c2ccc3c(c2)OCCO3)nn1` [Compound 6, (1-(2,3-dihydrobenzo[b][1,4]dioxin-6-yl)-1H-1,2,3-triazol-4-yl)methanol] registered an IC50 of 44.6 µM. As for `Cc1ccc(-c2csnn2)cc1` [Compound 145, 4-(p-tolyl)-1,2,3-thiadiazole], the figure is 3.47 µM; as for `c1ccc(-n2cnnn2)cc1` [Compound 134, 1-phenyl-1H-tetrazole], 19.4 µM. Consider `FC(F)(F)c1c(Cl)ccc(-n2cnnn2)c1Cl` [Compound 298, 1-(2,4-dichloro-3-(trifluoromethyl)phenyl)-1H-tetrazole], for which the IC50 is 0.136 µM. With `Clc1ccc(-c2ccno2)cc1` [Compound 150, 5-(4-chlorophenyl)isoxazole] the figure was 1.1 µM; with `N#CCn1nc(-c2ccc(Cl)c(C(F)(F)F)c2Cl)oc1=O` [Compound 244, 2-(5-(2,4-dichloro-3-(trifluoromethyl)phenyl)-2-oxo-1,3,4-oxadiazol-3(2H)-yl)acetonitrile], 0.411 µM. As for `OCc1cn(-c2ccc3c(c2)OCO3)nn1` [Compound 4, (1-(benzo[d][1,3]dioxol-5-yl)-1H-1,2,3-triazol-4-yl)methanol], the figure is 37.3 µM; as for `NCc1cn(-c2cccc(C(F)(F)F)c2)nn1` [Compound 38, (1-(3-(trifluoromethyl)phenyl)-1H-1,2,3-triazol-4-yl)methanamine hydrochloride], 37.5 µM.

Regarding `NCc1nnc(-c2ccccc2)o1` [Compound 140, (5-phenyl-1,3,4-oxadiazol-2-yl)methanamine], the IC50 was 2.94 µM. With `FC1CN(c2cc(-n3ccnn3)ccc2C(F)(F)F)C1` [Compound 288, 1-(3-(3-fluoroazetidin-1-yl)-4-(trifluoromethyl)phenyl)-1H-1,2,3-triazole] the figure was 0.248 µM; with `OCc1cn(-c2cc(Cl)cc(Cl)c2)nn1` [Compound 27, (1-(3,5-dichlorophenyl)-1H-1,2,3-triazol-4-yl)methanol], 3.03 µM. On to `Cc1nnc(-c2ccc(Cl)c(C(F)(F)F)c2Cl)o1` [Compound 299, 2-(2,4-dichloro-3-(trifluoromethyl)phenyl)-5-methyl-1,3,4-oxadiazole], for which the IC50 was 0.027 µM.

For the origin of these results see patent publication US11634391B2, “Compounds which are inhibitors of Notum” (UCL BUSINESS LTD, priority 2018, dated 2023).
